# Source: US8227428B2, “Anti-infammatory macrolide” (Glaxo Group Limited, priority 2009, dated 2012)
# Experiments:
# [1] = test system: Staphylococcus aureus ATCC13709; assay: Anti-bacterial screening, broth microdilution MIC; format: cell-based; details: read-out: minimal inhibitory concentration (MIC)
# Experimental: (§1) Whole-cell antimicrobial activity of compounds against clinically relevant bacteria (Staphylococcus aureus ATCC13709, Streptococcus pneumoniae ATCC49619, Streptococcus pyogenes ATCC700294, Moraxella catarrhalis ATCC23246, Haemophilus influenzae ATCC49247 and Escherichia coli ATCC25922) is determined by broth microdilution using the Clinical and Laboratory Standards (CLSI) recommended procedure (Document M7-[…], Methods for Dilution Susceptibility Tests for Bacteria that Grow Aerobically). Compounds are dissolved in DMSO to produce a 50 mM stock solution. The stock solution is diluted to a concentration of 128 μg/mL in appropriate media (Haemophilus Test Medium for Haemophilus influenzae, Mueller-Hinton Broth for Staphylococcus aureus, Moraxella catarrhalis and Escherichia coli, and Mueller-Hinton Broth supplemented with 5% horse serum for Streptococcus pyogenes and Streptococcus pneumoniae) to produce a working solution. A Tecan Genesis 150 Workstation (Tecan Group Ltd. Mannedorf, Switzerland) is used to prepare serial two-fold dilutions (50 μL aliquots) of the working solution in a U-shape bottom 96 well microtitre plate. After the compounds are diluted, a 50 μL aliquot of the test isolate ( 1×10^6 cfu/ml) is added to each well of the microtitre plate. The final test concentrations range from 0.125-64 μg/mL. Inoculated plates are incubated at 35° C. in ambient air for 18 to 24 hours. The minimum inhibitory concentration (MIC) is determined as the lowest concentration of compound that inhibited visible growth.
# [2] = test system: Streptococcus pneumoniae ATCC49619; assay: Anti-bacterial screening, broth microdilution MIC; format: cell-based; details: read-out: minimal inhibitory concentration (MIC)
# Experimental: as §1
# [3] = test system: Streptococcus pyogenes ATCC700294; assay: Anti-bacterial screening, broth microdilution MIC; format: cell-based; details: read-out: minimal inhibitory concentration (MIC)
# Experimental: as §1
# [4] = test system: Moraxella catarrhalis ATCC23246; assay: Anti-bacterial screening, broth microdilution MIC; format: cell-based; details: read-out: minimal inhibitory concentration (MIC)
# Experimental: as §1
# [5] = test system: Escherichia coli ATCC25922; assay: Anti-bacterial screening, broth microdilution MIC; format: cell-based; details: read-out: minimal inhibitory concentration (MIC)
# Experimental: as §1
# [6] = test system: Haemophilus influenzae ATCC49247; assay: Anti-bacterial screening, broth microdilution MIC; format: cell-based; details: read-out: minimal inhibitory concentration (MIC)
# Experimental: as §1
# [7] = Stability in buffer solutions pH 2 to pH 8 at 25° C.; format: physicochemical
# Experimental: Stability in buffer solutions pH 2 to pH 8 at 25° C., and in bio-relevant media (SGF pH 1.6, Fasted SIF pH 6.5 and Fed SIF pH 5.0) at 37° C., during 24 hours is monitored. The samples are analysed by LC/MS.
# Buffer Solutions and Physiologically Relevant Media Used in Stability Assay:
# LC Conditions: Instrument HP1100
# Column: Waters XBridge C18, 2.1×50 mm, 3.5 μm
# Guard column: Waters XBridge C18, 2.1×10 mm, 3.5 μm
# • A) 0.1% HCOOH/H2O • B) 0.1% HCOOH/CH3CN Gradient Timetable: […]
# Flow: 0.3 mL/min Column temp.: 25° C. Sample temp.: 25° C. (for stability assay in buffer solutions) • 37° C. (for stability assay in bio-relevant media) Injector volume: 3 μL (without injection program) MS Conditions: Instrument HP MS API-ES, positive ion mode Mass Range: 150-1500 Fragmentor: 100 Gain: 1.0 Treshold: 150 Step size: 0.20 Gas Temperature: 350° C. Drying Gas Flow: 13 L/min Nebulizer Pressure: 35 psig Capillary Voltage Positive 4000 V • Negative 4000 V Sample Preparation: a) For Stability Assay in Buffer Solutions
# Compounds are dissolved in CH3CN to produce a 1 mg/mL stock solution. The stock solution is diluted to a concentration of 0.2 mg/mL (1 mL solution in 4 mL buffer) with appropriate buffer to produce a working solution.
# Each solution at each pH is then dispatched into vials that are sealed and stored at room temperature in order to be analyzed at the proper time point. Before analysis, pH values of prepared sample solutions are checked and adjusted if neccessary.
smiles,measurement,setting,value
"CC[C@H]1OC(=O)[C@H](C)[C@@H](O[C@H]2C[C@@](C)(OC)[C@@H](OC(=O)CCN(CC)CC)[C@H](C)O2)[C@H](C)[C@@H](O[C@@H]2O[C@H](C)C[C@H](NC)[C@H]2O)[C@](C)(OC)C[C@@H](C)C(=O)N[C@H](C)[C@@H](O)[C@]1(C)O [Example 2, 3′-N-Demethyl-4″-O-(3-diethylaminopropionoyl)-6-O-methyl-9a-aza-9a-homoerythromycin A]",MIC,[1],> 64 µg/mL
same,MIC,[2],> 64 µg/mL
same,MIC,[3],> 64 µg/mL
same,MIC,[4],> 64 µg/mL
same,MIC,[5],> 64 µg/mL
same,MIC,[6],> 64 µg/mL
same,stability in buffers at pH 7 and at pH 8,"[7]; 25° C., during 24 hours",showed instability
same,Percentage (Area %) of the compound observed in buffers,"[7]; pH 2, 25° C., 2 h",100 Area %
same,Percentage (Area %) of the compound observed in buffers,"[7]; pH 2, 25° C., 4 h",100 Area %
same,Percentage (Area %) of the compound observed in buffers,"[7]; pH 2, 25° C., 6 h",98.7 Area %
same,Percentage (Area %) of the compound observed in buffers,"[7]; pH 2, 25° C., 8 h",98.5 Area %
same,Percentage (Area %) of the compound observed in buffers,"[7]; pH 2, 25° C., 12 h",97.6 Area %
same,Percentage (Area %) of the compound observed in buffers,"[7]; pH 2, 25° C., 14 h",97.6 Area %
same,Percentage (Area %) of the compound observed in buffers,"[7]; pH 2, 25° C., 18 h",97.5 Area %
same,Percentage (Area %) of the compound observed in buffers,"[7]; pH 2, 25° C., 20 h",97.3 Area %
same,Percentage (Area %) of the compound observed in buffers,"[7]; pH 2, 25° C., 22 h",97.2 Area %
same,Percentage (Area %) of the compound observed in buffers,"[7]; pH 2, 25° C., 24 h",97.2 Area %
same,Percentage (Area %) of the compound observed in buffers,"[7]; pH 2, 25° C., Initial",100 Area %
same,Percentage (Area %) of the compound observed in buffers,"[7]; pH 3, 25° C., 2 h",100 Area %
same,Percentage (Area %) of the compound observed in buffers,"[7]; pH 3, 25° C., 4 h",100 Area %
same,Percentage (Area %) of the compound observed in buffers,"[7]; pH 3, 25° C., 6 h",98.8 Area %
same,Percentage (Area %) of the compound observed in buffers,"[7]; pH 3, 25° C., 8 h",97.5 Area %
same,Percentage (Area %) of the compound observed in buffers,"[7]; pH 3, 25° C., 12 h",97.3 Area %
same,Percentage (Area %) of the compound observed in buffers,"[7]; pH 3, 25° C., 14 h",97.3 Area %
same,Percentage (Area %) of the compound observed in buffers,"[7]; pH 3, 25° C., 18 h",97.0 Area %
same,Percentage (Area %) of the compound observed in buffers,"[7]; pH 3, 25° C., 20 h",97.0 Area %
same,Percentage (Area %) of the compound observed in buffers,"[7]; pH 3, 25° C., 22 h",97.0 Area %
same,Percentage (Area %) of the compound observed in buffers,"[7]; pH 3, 25° C., 24 h",96.9 Area %
same,Percentage (Area %) of the compound observed in buffers,"[7]; pH 3, 25° C., Initial",100 Area %
same,Percentage (Area %) of the compound observed in buffers,"[7]; pH 4, 25° C., 2 h",100 Area %
same,Percentage (Area %) of the compound observed in buffers,"[7]; pH 4, 25° C., 4 h",100 Area %
same,Percentage (Area %) of the compound observed in buffers,"[7]; pH 4, 25° C., 6 h",100 Area %
same,Percentage (Area %) of the compound observed in buffers,"[7]; pH 4, 25° C., 8 h",99.3 Area %
same,Percentage (Area %) of the compound observed in buffers,"[7]; pH 4, 25° C., 12 h",99.0 Area %
same,Percentage (Area %) of the compound observed in buffers,"[7]; pH 4, 25° C., 14 h",98.5 Area %
same,Percentage (Area %) of the compound observed in buffers,"[7]; pH 4, 25° C., 18 h",98.5 Area %
same,Percentage (Area %) of the compound observed in buffers,"[7]; pH 4, 25° C., 20 h",98.4 Area %
same,Percentage (Area %) of the compound observed in buffers,"[7]; pH 4, 25° C., 22 h",98.4 Area %
same,Percentage (Area %) of the compound observed in buffers,"[7]; pH 4, 25° C., 24 h",98.3 Area %
same,Percentage (Area %) of the compound observed in buffers,"[7]; pH 4, 25° C., Initial",100 Area %
same,Percentage (Area %) of the compound observed in buffers,"[7]; pH 5, 25° C., 2 h",98.5 Area %
same,Percentage (Area %) of the compound observed in buffers,"[7]; pH 5, 25° C., 4 h",98.5 Area %
same,Percentage (Area %) of the compound observed in buffers,"[7]; pH 5, 25° C., 6 h",98.4 Area %
same,Percentage (Area %) of the compound observed in buffers,"[7]; pH 5, 25° C., 8 h",98.4 Area %
same,Percentage (Area %) of the compound observed in buffers,"[7]; pH 5, 25° C., 12 h",98.4 Area %
same,Percentage (Area %) of the compound observed in buffers,"[7]; pH 5, 25° C., 14 h",98.3 Area %
same,Percentage (Area %) of the compound observed in buffers,"[7]; pH 5, 25° C., 18 h",98.3 Area %
same,Percentage (Area %) of the compound observed in buffers,"[7]; pH 5, 25° C., 20 h",98.3 Area %
same,Percentage (Area %) of the compound observed in buffers,"[7]; pH 5, 25° C., 22 h",98.3 Area %
same,Percentage (Area %) of the compound observed in buffers,"[7]; pH 5, 25° C., 24 h",98.0 Area %
same,Percentage (Area %) of the compound observed in buffers,"[7]; pH 5, 25° C., Initial",100 Area %
same,Percentage (Area %) of the compound observed in buffers,"[7]; pH 6, 25° C., 2 h",99.6 Area %
same,Percentage (Area %) of the compound observed in buffers,"[7]; pH 6, 25° C., 4 h",99.4 Area %
same,Percentage (Area %) of the compound observed in buffers,"[7]; pH 6, 25° C., 6 h",99.0 Area %
same,Percentage (Area %) of the compound observed in buffers,"[7]; pH 6, 25° C., 8 h",99.0 Area %
same,Percentage (Area %) of the compound observed in buffers,"[7]; pH 6, 25° C., 12 h",99.0 Area %
same,Percentage (Area %) of the compound observed in buffers,"[7]; pH 6, 25° C., 14 h",98.5 Area %
same,Percentage (Area %) of the compound observed in buffers,"[7]; pH 6, 25° C., 18 h",98.3 Area %
same,Percentage (Area %) of the compound observed in buffers,"[7]; pH 6, 25° C., 20 h",98.2 Area %
same,Percentage (Area %) of the compound observed in buffers,"[7]; pH 6, 25° C., 22 h",98.2 Area %
same,Percentage (Area %) of the compound observed in buffers,"[7]; pH 6, 25° C., 24 h",98.1 Area %
same,Percentage (Area %) of the compound observed in buffers,"[7]; pH 6, 25° C., Initial",100 Area %
same,Percentage (Area %) of the compound observed in buffers,"[7]; pH 7, 25° C., 2 h",97.8 Area %
same,Percentage (Area %) of the compound observed in buffers,"[7]; pH 7, 25° C., 4 h",93.4 Area %
same,Percentage (Area %) of the compound observed in buffers,"[7]; pH 7, 25° C., 6 h",89.8 Area %
same,Percentage (Area %) of the compound observed in buffers,"[7]; pH 7, 25° C., 8 h",89.3 Area %
same,Percentage (Area %) of the compound observed in buffers,"[7]; pH 7, 25° C., 12 h",85.1 Area %
same,Percentage (Area %) of the compound observed in buffers,"[7]; pH 7, 25° C., 14 h",84.3 Area %
same,Percentage (Area %) of the compound observed in buffers,"[7]; pH 7, 25° C., 18 h",84.0 Area %
same,Percentage (Area %) of the compound observed in buffers,"[7]; pH 7, 25° C., 20 h",81.3 Area %
same,Percentage (Area %) of the compound observed in buffers,"[7]; pH 7, 25° C., 22 h",79.9 Area %
same,Percentage (Area %) of the compound observed in buffers,"[7]; pH 7, 25° C., 24 h",78.4 Area %
same,Percentage (Area %) of the compound observed in buffers,"[7]; pH 7, 25° C., Initial",100 Area %
same,Percentage (Area %) of the compound observed in buffers,"[7]; pH 8, 25° C., 2 h",92.0 Area %
same,Percentage (Area %) of the compound observed in buffers,"[7]; pH 8, 25° C., 4 h",81.7 Area %
same,Percentage (Area %) of the compound observed in buffers,"[7]; pH 8, 25° C., 6 h",77.7 Area %
same,Percentage (Area %) of the compound observed in buffers,"[7]; pH 8, 25° C., 8 h",71.7 Area %
same,Percentage (Area %) of the compound observed in buffers,"[7]; pH 8, 25° C., 12 h",63.4 Area %
same,Percentage (Area %) of the compound observed in buffers,"[7]; pH 8, 25° C., 14 h",60.2 Area %
same,Percentage (Area %) of the compound observed in buffers,"[7]; pH 8, 25° C., 18 h",54.2 Area %
same,Percentage (Area %) of the compound observed in buffers,"[7]; pH 8, 25° C., 20 h",51.1 Area %
same,Percentage (Area %) of the compound observed in buffers,"[7]; pH 8, 25° C., 22 h",47.1 Area %
same,Percentage (Area %) of the compound observed in buffers,"[7]; pH 8, 25° C., 24 h",44.6 Area %
same,Percentage (Area %) of the compound observed in buffers,"[7]; pH 8, 25° C., Initial",100 Area %
